Values quoted from earlier work, collected in patent US8349353B2, “Controlled release cytotoxic agent compositions and methods for the treatment of otic disorders” (Otonomy, Inc., priority 2008, dated 2013).

Tested on: V2-R
Settings: infusion into the scala tympani

Which “Meniere's disease symptoms” value does the source give for Cc1ccccc1C(=O)Nc1ccc(C(=O)N2CCCC(N(C)C)c3ccccc32)cc1 (stereo not shown) [OPC-31260] here?
The value was “marked reduction of Meniere's disease symptoms”.
